We go through 28 compounds from patent publication US5753483A (priority 1995, dated 1998).

Assay [1] deals with T1, Pyrophosphorylase (Sus scrofa, UniProt F1S210).
T1 construct: 64 and 55 kDa bands; native about 125 kDa
Nature of the assay: Specificity of pyrophosphorylase (forward direction). The format is biochemical, pig. The note with it: for Activity / Relative Activity: sugar phosphate 5 mM, UT = 5 mM; for Relative Activity: GalNAc-1-P = 100. As to the method:
(§1) After an incubation of 10 minutes at 37° C., the reaction was terminated by heating the tubes in a boiling water bath for 30 seconds. The amount of product could either be determined by measuring the amount of radioactivity that bound to DE-52 (HCO3 -) after treatment of the reaction mixtures with alkaline phosphatase, or the product could be detected by TLC.
(§2) The substrate specificity of the purified enzyme was examined in both the forward and the reverse direction.

The target in assay [2] is T1, Pyrophosphorylase. Nature of the assay: Specificity of pyrophosphorylase (reverse direction). In kind it is biochemical, pig. Conditions: 5 mM, PP = 1 mM; for Relative Activity: UDP-GalNAc = 100. As to the method:
(§3) When measured in the reverse direction, either a direct assay or an indirect assay could be used. […] The incubation mixtures contained the following components in a final volume of 50 μl: 5 mM sodium pyrophosphate, 250 uM UDP-[^3 H]GlcNAc (2.2 Ci/mmol), 100 mM Tris HCl buffer, pH 8.5, 2 mM MgCl2, and various amounts of enzyme at the different stages of purification. […] The suspension was vortexed vigorously for 2 minutes, and was then centrifuged in a microfuge. The supernatant liquid was removed and saved, and the charcoal was washed with 1 ml of water. The supernatant liquid from this wash was combined with the first supernatant liquid, and an aliquot was removed and counted, as a measure of the formation of GlcNAc-1-P.
(§4) For the indirect assay, a modification of the spectrophotometric method of Munch-Petersen, (1956) Acta Chim. Scand. […] The assay mixtures contained 50 mM Tris-HCl buffer, pH 7.5, 1 mM MgCl2, 0.5 mM ADP, 1 mM glucose, 0.5 mM NADP, 1 mM inorganic pyrophosphate, 2 mM UDP-HexNAc and 2.5 units each of nucleoside diphosphate kinase, hexokinase and glucose-6-P dehydrogenase.
as §2

For assay [3], the target named is T2, UDP-GlcNAc pyrophosphorylase (Sus scrofa, UniProt F1S210).
T2 construct: both 64 and 55 kDa bands photolabelled
T2 sequence (F1S210 1-505): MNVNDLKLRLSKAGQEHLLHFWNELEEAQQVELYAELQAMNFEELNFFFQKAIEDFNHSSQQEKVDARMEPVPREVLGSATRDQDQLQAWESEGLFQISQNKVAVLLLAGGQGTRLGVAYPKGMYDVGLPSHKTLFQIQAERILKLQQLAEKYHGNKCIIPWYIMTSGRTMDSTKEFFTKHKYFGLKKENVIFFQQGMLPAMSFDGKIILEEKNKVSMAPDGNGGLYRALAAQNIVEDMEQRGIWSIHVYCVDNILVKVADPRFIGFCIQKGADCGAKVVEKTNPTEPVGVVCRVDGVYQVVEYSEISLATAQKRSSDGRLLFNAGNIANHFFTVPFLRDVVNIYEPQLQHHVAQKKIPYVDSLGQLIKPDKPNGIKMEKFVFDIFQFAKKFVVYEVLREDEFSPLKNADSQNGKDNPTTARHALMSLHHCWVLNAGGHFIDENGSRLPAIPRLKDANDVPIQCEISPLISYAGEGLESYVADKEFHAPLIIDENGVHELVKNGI
As to the kind of experiment: Photoaffinity labeling of purified pyrophosphorylase and its inhibition (FIG. 5). In kind it is binding, pig. The note with it: for labeling of enzyme subunits by probe: UV light, SDS-PAGE. As to the method:
Enzyme was incubated with radioactive probe in the presence or absence of various inhibitors, and some of the incubations were exposed to UV light to activate the probe. Each incubation was treated with trichloroacetic acid to precipitate the protein, and the pellet was resuspended in SDS and subjected to SDS-PAGE. Radioactive proteins were detected by exposure to film. […]

Assay [4] concerns the target T1, Pyrophosphorylase. As to the kind of experiment: Putative inhibitors of pyrophosphorylase. The note with it: for inhibition at 100 µM: 0.1 mM; for inhibition at 1000 µM: 1.0 mM. In kind it is biochemical, pig. As to the method: A variety of other inhibitors were tested, including various sulfhydryl reagents and metal chelators.
Assay [5] relates to UDP-GlcNAc pyrophosphorylase. As to the kind of experiment: Kinetic constants, forward direction (sugar-1-P + UTP). The format is biochemical, pig. As to the method: as §1
Assay [6] deals with UDP-GlcNAc pyrophosphorylase. Conditions: reverse direction. As to the method:
as §3, §4

For assay [7], the system named is UDP-GlcNAc pyrophosphorylase. Conditions: [^3 H]UTP + GlcNAc-1-P, 2 hours.
Experimental: The reaction products, formed in either the forward direction (i.e., uridine diphosphate sugars), or in the reverse direction (i.e., UTP and sugar-i-P's), were isolated by chromatography on a 1×20
column of DEAE-cellulose (HCO3 -), equilibrated in 10 mM NH4 HCO3. After application of the sample, the column was washed with the same solution and the retained products were eluted with 200 ml of a linear 10 to 300 mM gradient of NH4 HCO3. Fractions were analyzed for nucleotides by measuring the absorption at 260 nm, for radioactivity by scintillation counting, and for hexosamine by the Reissig test (J. Biol. Chem., 217, 959-966, 1955) or the or the Elson Morgan assay (Wheat, R. W. (1966) Meth. Enzymol. 8, 60-78). Peak fractions were pooled and concentrated on a rotary evaporator and NH4 H CO3 was removed by evaporation in the presence of triethylamine. The triethylamine was in turn removed by evaporation in the presence of methanol.
The reaction products were identified by chromatography, either directly, or following various treatments such as digestion with phosphodiesterase or alkaline phosphatase, or acid hydrolysis. Nucleotides were identified by TLC in the following systems: PEI plates developed in 0.2M and 0.4M solutions of LiCl; cellulose plates in ethanol: 1M ammonium acetate, pH 7.3 (7:3), or silica gel plates in ethanol: 1M ammonium acetate, pH 5.0 (7:3). N-acetyl-hexosamines were released from nucleotides by mild acid hydrolysis (0.01 N HCl, 100° C., 15 minutes) and identified by chromatography on borate-treated paper in n-butanol:pyridine:water (6:4:3) as described earlier by Cardini and Leloir, (1953) Arch. Biochem. Biophys., 45, 317-324.
After deproteinization, the aqueous phase was applied to a column of DE-52 and sugar phosphates and nucleoside diphosphate sugars were separated with a gradient of NH4 HCO3, as shown in FIG. 4. […] The peak was pooled and subjected to TLC in 3 different solvent systems as described above.
The characterization of these products was also based on the products produced by phosphosdiesterase, mild acid hydrolysis and other treatments.
For another assay, the system named is sheep brain enzyme. The note with it: cited from earlier work.
Assay [8] addresses T1, Pyrophosphorylase. As to the kind of experiment: Effects of metal ions on pyrophosphorylase activity. The format is biochemical, pig. Conditions: metal ion 1 mM. The source says: Other ions such as Fe^+++, Ca^++ and Hg^++ were ineffective.
Assay [9] deals with UDP-GlcNAc pyrophosphorylase from brain. The note with it: cited from earlier work.
Setting [10] is: metal chelators, as long as sufficient Mn++ was added.
The mark [11] stands for this setting: at 1 mM UTP, read-out: apparant Km.
Where [12] appears, read: at 1 mM inorganic pyrophosphate.

As a reminder, the inhibition is the share of the control response that was lost under treatment. For orientation: Vmax means the rate approached at saturating substrate. What is called Km is the substrate concentration at which the rate is half of its maximum.

“Also recorded” adds a separate entry of the source. Like-named read-outs stand apart in the source and are kept apart here.

T1 sequence (F1S210 1-505): as above

For `O=P(O)(O)O[C@H]1O[C@H](CO)[C@H](O)[C@H](O)[C@H]1O` [Gal-1-P], on Pyrophosphorylase [1], the “substrate preference, forward direction” value was “may act as substrates but to a much lower degree”; the Activity came to 0.14 nmol/min; the “Relative Activity” value amounted to 3%.

As for `O=C(O)[C@H]1O[C@H](OP(=O)(O)OP(=O)(O)OC[C@H]2O[C@@H](n3ccc(=O)[nH]c3=O)[C@H](O)[C@@H]2O)[C@H](O)[C@@H](O)[C@@H]1O` [UDP-GlcCOOH, UDP-glucuronic acid], at Pyrophosphorylase [2], the Activity came out at 1.4 nmol/min and the “Relative Activity” value is 7%. In addition, the inhibition of labeling result in [3] (even at 1 mM) is on record as “None of these sugar nucleotides showed any inhibition of the labeling”.

As to `O=C(O)CN(CCOCCOCCN(CC(=O)O)CC(=O)O)CC(=O)O` [EGTA], on Pyrophosphorylase [4] (read-out: Inhibition), the inhibition at 100 µM turned out to be 8% and the inhibition at 1000 µM was determined as 13%. Also, the “inhibition (in words)” value on Pyrophosphorylase [4] (setting [10]) is reported as “did not inhibit”.

With `Nc1nc2c(ncn2[C@@H]2O[C@H](COP(=O)(O)OP(=O)(O)OP(=O)(O)O)[C@@H](O)[C@H]2O)c(=O)[nH]1` [GTP], the inhibition of labeling entry in assay [3] (nucleotides) is given as “very little inhibition of labeling”.

`Nc1nc2c(ncn2[C@@H]2O[C@H](COP(=O)(O)OP(=O)(O)O)[C@@H](O)[C@H]2O)c(=O)[nH]1` [GDP]: the inhibition of labeling result in assay [3] (nucleotides) is on record as “very little inhibition of labeling”.

Turning to `Nc1ncnc2c1ncn2[C@@H]1O[C@H](COP(=O)(O)OP(=O)(O)OP(=O)(O)O)[C@@H](O)[C@H]1O` [ATP], in [3] (nucleotides), the inhibition of labeling result is listed as “very little inhibition of labeling”.

As to `Nc1ncnc2c1ncn2[C@@H]1O[C@H](COP(=O)(O)OP(=O)(O)O[C@H]2O[C@H](CO)[C@@H](O)[C@H](O)[C@H]2O)[C@@H](O)[C@H]1O` [ADP-Glc], at Pyrophosphorylase [2], the Activity was 0.6 nmol/min and the “Relative Activity” value is reported as 3%.

`O=P(O)(O)O[C@H]1O[C@H](CO)[C@@H](O)[C@H](O)[C@H]1O` [Glc-1-P, glucose-1-P]: the maximal velocity (Vmax) in assay [5] (at 1 mM UTP) turned out to be 1.7 nmol/min. The Km in assay [5] (setting [11]) was determined as 66600 µM. On Pyrophosphorylase [1], the “substrate preference, forward direction” value is listed as “may act as substrates but to a much lower degree”; the Activity stood at 0.20 nmol/min; the “Relative Activity” value came to 4%.

As for `O=P(O)(O)OP(=O)(O)O` [inorganic pyrophosphate], in assay [6] (at 1 mM UDP-GlcNAc), the Km amounted to 70 µM and the Vmax is given as 20 nmol/min.

With `N[C@H]1[C@@H](OP(=O)(O)O)O[C@H](CO)[C@@H](O)[C@@H]1O` [GlcN-1-P], on Pyrophosphorylase [1], the Activity is 0.10 nmol/min and the “Relative Activity” value is on record as 2%.

Take `CC(=O)N[C@H]1[C@@H](OP(=O)(O)O)O[C@H](CO)[C@@H](O)[C@@H]1O` [GlcNAc-1-P]: the Vmax in [5] (at 1 mM UTP) was 3.1 nmol/min. Further, the Km in assay [5] (setting [11]) came to 2000 µM. On Pyrophosphorylase [1], the Activity stood at 4.83 nmol/min and the “Relative Activity” value came to 91%.

Regarding `NC(=O)CI` [Iodoacetamide], testing at 1000 µM against Pyrophosphorylase [4] gave an inhibition of 44%.

In the case of `O=P(O)(O)O` [inorganic phosphate], the “inhibition (in words)” value against Pyrophosphorylase [4] (even at 10 mM) was “nor did inorganic phosphate”.

`N[C@H]1C(OP(=O)(O)O)O[C@H](CO)[C@H](O)[C@@H]1O` (stereo partly shown) [GalN-1-P]: on Pyrophosphorylase [1], the Activity was 0 nmol/min.

Take `O=C(O)CN(CCN(CC(=O)O)CC(=O)O)CC(=O)O` [EDTA]: on Pyrophosphorylase [4], testing at 100 µM gave an inhibition of 5% and the inhibition at 1000 µM came out at 13%. At Pyrophosphorylase [4] (setting [10]), the “inhibition (in words)” value is on record as “did not inhibit”.

Consider `CC(=O)N[C@H]1[C@@H](OP(=O)(O)O)O[C@H](CO)[C@H](O)[C@@H]1O` [GalNAc-1-P], for which, in assay [5] (at 1 mM UTP), the Vmax came out at 7.1 nmol/min. Besides, the Km in [5] (setting [11]) was found to be 5500 µM. Moreover, on Pyrophosphorylase [1], the “substrate preference, forward direction” value is on record as “GalNAc-1-P over GlcNAc-1-P; also recorded: prefers GalNAc-1-P slightly over GlcNAc-1-P”; the Activity is 5.28 nmol/min; the “Relative Activity” value is listed as 100%.

For `O=c1ccn([C@@H]2O[C@H](COP(=O)(O)O)[C@@H](O)[C@H]2O)c(=O)[nH]1` [UMP], the inhibition of labeling result in assay [3] (nucleotides) was “a small effect”.

`c1cnc2c(c1)ccc1cccnc12` [O-Phenanthroline, 1, 10-phenanthroline]: on Pyrophosphorylase [4] (read-out: Inhibition), the inhibition at 100 µM stood at 5% and the inhibition at 1000 µM was 16%. Also, the “inhibition (in words)” value at Pyrophosphorylase [4] (setting [10]) is “did not inhibit”.

As to `CC(=O)NC1C(OP(=O)(O)OP(=O)(O)OCC2OC(n3ccc(=O)[nH]c3=O)C(O)C2O)OC(CO)C(O)C1O` (stereo not shown) [UDP-GlcNAc, UDP-N-acetylglucosamine], in assay [6] (setting [12]), the Michaelis-Menten constant (Km) came to 50 µM and the Vmax amounted to 22.2 nmol/min. Further, on Pyrophosphorylase [2], the Activity was found to be 13.0 nmol/min and the “Relative Activity” value amounted to 66%. The inhibition of labeling entry in assay [3] (unlabeled UDP-GlcNAc 0.01 mM to 1 mM) is “labeling was efficiently blocked; also recorded: effectively inhibited the labeling of both subunits to about the same extent; also recorded: labeling is blocked”. Further, in [7], the “amount in UDP-GlcNAc area” value is 7.9 µmol and the “radioactivity in UDP-GlcNAc area, share of total” value was 79%. In addition, the “activity as substrate (in words)” value in the assay with sheep brain enzyme is listed as “most active”.

On to “5-azido-salicylic-[^125 I]-allylamine-UDP-GlcNAc [5-azido-ASA-UDP-GlcNAc]”, for which the “labeling of enzyme subunits by probe” value in [3] was “both the 64 kDa and the 55 kDa subunits of the enzyme became labeled with the probe”; in assay [3] (listed as [^125 I]-N3 -salicyclic acid-allylamine-UDP-GlcNAc), “Both subunits became labeled by this probe and labeling was saturable with increasing concentrations of probe”; in [3] (listed as azido-[^125 I]-salicyclic acid-allylamine-UDP-GlcNAc), “they both become labeled”. Further, in the assay on GlcNAc transferases, the “labeling of GlcNAc transferases by probe” value was “does label the pyrophosphorylase and some GlcNAc transferases”.

On to `O=c1ccn([C@@H]2O[C@H](COP(=O)(O)OP(=O)(O)O[C@H]3OC[C@@H](O)[C@H](O)[C@H]3O)[C@@H](O)[C@H]2O)c(=O)[nH]1` [UDP-xylose], for which, in [3] (even at 1 mM), the inhibition of labeling result is “None of these sugar nucleotides showed any inhibition of the labeling”.

Consider `O=c1ccn([C@@H]2O[C@H](COP(=O)(O)OP(=O)(O)O)[C@@H](O)[C@H]2O)c(=O)[nH]1` [UDP], for which the inhibition of labeling entry in [3] (nucleotides) is “very little inhibition of labeling”.

For the compound `O=C(O)[C@H]1O[C@H](OP(=O)(O)OP(=O)(O)OC[C@H]2O[C@@H](n3ccc(=O)[nH]c3=O)[C@H](O)[C@@H]2O)[C@H](O)[C@@H](O)[C@H]1O` [UDP-GalCOOH], at Pyrophosphorylase [2], the Activity came to 1.3 nmol/min and the “Relative Activity” value was determined as 7%.

As to `CCN1C(=O)C=CC1=O` [N-ethylmaleimide], the inhibition at 10 µM against Pyrophosphorylase [4] (0.01 mM) came to 3%. At Pyrophosphorylase [4], this compound returned an inhibition at 100 µM of 46% and an inhibition at 1000 µM of 72%.

Consider `O[C@H](CS)[C@H](O)CS` (racemic) [Dithiothreitol], for which, on Pyrophosphorylase [4] (read-out: Inhibition), the inhibition at 100 µM came out at 21% and the inhibition at 1000 µM is 62%.

Take `Nc1nc2c(ncn2[C@@H]2O[C@H](COP(=O)(O)OP(=O)(O)O[C@H]3O[C@H](CO)[C@@H](O)[C@H](O)[C@@H]3O)[C@@H](O)[C@H]2O)c(=O)[nH]1` [GDP-mannose]: the inhibition of labeling result in assay [3] (even at 1 mM) is reported as “None of these sugar nucleotides showed any inhibition of the labeling”.

Consider `[Mn+2]` [Mn++, manganese], for which the Activity was found to be 4.89 nmol at Pyrophosphorylase [8] and 100% at Pyrophosphorylase [8] (Mn++ = 100). The effectiveness as cation result in [9] is given as “then Mn^++”.

As to `O=c1ccn([C@@H]2O[C@H](COP(=O)(O)OP(=O)(O)OP(=O)(O)O)[C@@H](O)[C@H]2O)c(=O)[nH]1` [UTP], in assay [5] (UTP as substrate, at 10 mM GlcNAc-1-P), the maximum rate (Vmax) is 4.8 nmol/min. In addition, the Km in assay [5] (UTP as substrate, at 10 mM GlcNAc-1-P, read-out: Km) was 2500 µM. Further, the inhibition of labeling entry in assay [3] (nucleotides) was “very little inhibition of labeling”.
